# Results published in patent US9399032B2, “Methods and compositions for treating degenerative and ischemic disorders” (The General Hospital Corporation, priority 2009, dated 2016).
# Counter-ions that a name gives are not always drawn. Like-named read-outs stand apart in the source and are kept apart here.
# Columns and labels:
# [1] = test system: Adult rat ventricular cardiomyocytes; assay: Simulated ischemia-reperfusion injury in isolated cardiomyocytes; assay type: cell-based; conditions: 60 minutes ischemia, 30 minutes reperfusion
# Procedure: The ability of meclizine to protect isolated cardiomyocytes and isolated hearts from ischemic injury was investigated as follows Adult rat ventricular cardiomyocytes were isolated by endotoxin-free collagenase perfusion, and the simulated ischemia-reperfusion injury was performed as previously described (Wojtovich and Brookes, Basic Res. Cardiol., 104:121-129 (2009)). Control cells were exposed to DMSO for 20 minutes. Test cells were exposed to either vehicle or doses of meclizine for 20 minutes, which was washed out before being subjected to ischemia for 60 minutes followed by reperfusion for 30 minutes under normoxic conditions in normoxic glucose-replete buffer at pH 7.4. Cell viability was assayed by Trypan blue exclusion. VO2 was assessed by isolating mitochondria and measuring both respirating cells and mitochondria using a Clark oxygen electrode (Wojtovich, supra).
# [2] = test system: AMPK; assay: Western blot detection of AMPK phosphorylation; assay type: cell-based; conditions: C2C12 myotubes, 24 hours of treatment
# Procedure: The ability of meclizine, S-meclizine and R-meclizine to activate AMPK in C2C12 myotubes was also evaluated using Western blot detection of AMPK phosphorylation in C2C12 myotubes following 24 hours of treatment with R-meclizine (R-Mec), S-meclizine (S-Mec) and the racemic mixture (Rac-Mec).
# [3] = molecular target: human H 1 receptor (Homo sapiens, UniProt P35367); assay: H1 receptor competitive binding assay with [3H]pyrilamine; conditions: 3 nM [3H]pyrilamine
# Procedure: The ability of each enantiomer to bind to the H1 receptor was evaluated using a competitive binding experiment with the racemate. In vitro binding of R-meclizine (R-Mec) and S-meclizine (S-Mec) to human H 1 receptor was determined by competitive binding assays in the presence of 3 nM [3H]pyrilamine. Non-specific binding was determined in the presence of excess (1 μM) unlabeled Pyrilamine. IC50 were determined by non-linear regression analysis of the competition curves.
# [4] = test system: purified recombinant PCYT2; assay: PCYT2 enzyme assay in vitro; assay type: biochemical; conditions: 50-1000 μM meclizine or 50-600 μM S-meclizine
# Procedure: FIGS. 16 C-D are line graphs showing that PCYT2 (CTP:phosphoethanolamine cytidylyltransferase 2) is a target of meclizine (16C) and S-meclizine (16D). PCYT2 enzyme assays were carried out in vitro with purified recombinant PCYT2 in the presence of 50-1000 μM meclizine or 50-600 μM of S-meclizine.
# CTP:Phosphoethanolamine Cytidylyltransferase (PCYT2) catalyzes the formation of CDP-ethanolamine, which is often the rate regulatory step in the PE-Kennedy pathway. See, e.g., Fullerton et al., J Biol Chem 18; 284(38):25704-13 (2009). To determine whether meclizine affects PCYT2 activity, PCYT2 (CTP:phosphoethanolamine cytidylyltransferase 2) enzyme assays were carried out in vitro with purified recombinant PCYT2 in the presence of 50-1000 μM meclizine or 50-600 μM of S-meclizine. For additional details see Zhu et al., J Lipid Res 49: 2197 (2008).
# [5] = test system: STHdhQ111/111 striatal cells; assay: Viability of mutant huntingtin striatal cells after serum withdrawal (CellTiter-Glo); assay type: cell-based, murine; conditions: serum free media, 24 hours
# Procedure: Wherever indicated, mutant (STHdh^Q111/111) striatal cells were grown in serum free media for ˜24 hours before ATP measurement. Luminescence was measured in DTX880 multimode detector. Multiple concentrations (between 100 μM and 0.5 μM) of rotenone, antimycin, oligomycin, meclizine, hydroxyzine (Spectrum chemical), thiethylperazine (Prestwick), cyproheptadine (Sigma), pyrilamine (Spectrum chemical), tripelennamine (Spectrum chemical), diphenhydramine (Spectrum chemical), clemastine (Prestwick), bromopheniramine (Spectrum chemical), pheniramine (Spectrum chemical), promethazine (MSDiscovery 01500510), atropine (Sigma), and scopolamine (Sigma) were tested for their protective effect on STHdh^Q111/111 cells in serum free media. The dose which conferred maximum protection is shown. Luminescence was measured in DTX880 multimode detector.
# Although it is not necessary to understand the mechanism of an invention, it is believed that the observed cell survival may be due to suppressed apoptosis based on caspase 3 and 7 cleavage. Improved cell viability was confirmed by microscopy.
# [6] = test system: C2C12 myotubes; assay: [3H]-2-deoxyglucose uptake; assay type: cell-based; conditions: 50 micromolar, four hours
# Procedure: Fully differentiated C2C12 myotubes were subjected to a glucose uptake protocol, as follows. Briefly, C2C12 myotube cells were incubated for four hours in serum-free media containing either 0.1% DMSO as a control, 50 micromolar meclizine, 50 micromolar S-meclizine, or 2 mM metformin. Cells were subsequently incubated for thirty minutes in serum and glucose free buffer and then transitioned to buffer containing [3H]-2-deoxyglucose for five minutes. After multiple wash steps, cells were lysed and the lysate was subjected to scintillation counting to quantify uptake. Data were prepared as raw counts per minute, which is proportional to 2-deoxyglucose uptake.
# [7] = test system: MCH58 fibroblasts; conditions: 72 h, 10 µM
# Procedure: (§1) The assay included monitoring or measuring cell growth in cells that are grown in glucose (which allows the cell to utilize glycolysis) or in galactose (which switches the cell energy production from glycolysis to the OXPHOS pathway).
# (§2) The high glucose medium was replaced with 10 mM glucose or 10 mM galactose wherever indicated. All media contained 1 mM pyruvate and 4 mM glutamine.
# (§3) Cell number quantification high throughput assays were performed as follows. […] 24 hours later, cells were washed twice in PBS and media was replaced with either 10 mM glucose or 10 mM galactose containing media.
# (§4) Approximately 100 nL of each compound was pin-transferred in duplicate into the plates with a steel pin array using the CyBi-Well robot (CyBio). […] Compound-treated plates were incubated at 37° C. for 72 hours. […] Wells were then washed once and stored in PBS. Cell culture plates were stored at 4° C. until time of imaging, which was at most 24 hours after fixation.
# (§5) Imaging was performed by Arrayscan VTi automated microscope (ThermoFisher Scientific) with the use of an automated plate stacker. Appropriate filter sets for the detection of the Hoescht fluorescent signal were used. Four non-overlapping images at 5× magnification (NA 0.25) were acquired for a field of view of 1.3 mm×1.3 mm per image. The plate stacker and microscope including an auto-focusing algorithm were controlled entirely with ArrayScan software. Images were captured and stored simultaneously in at least two independent locations. Image analysis was performed using the freely available open-source software package CellProfiler. […] Images were analyzed individually by first identifying nuclei using the Hoescht staining signal.
# (§6) Total number of nuclei per field were recorded, and the four images per well were totaled to give the cell count per well. Computation was performed using a UNIX computer cluster. Appropriate masking of each nucleus was ensured by visually monitoring each batch at its onset and intermittently throughout the run.
# (§7) The fibroblast cells were seeded on Day 0 and incubated for 24 hours in standard culture media.
# (§8) Normalized cell counts were computed separately for each 96-well plate by dividing the cell count of each well with the trimmed mean (the average after discarding the largest and smallest value) of the cell counts for the 16 DMSO treated wells. […] The remaining replicate measurements were averaged, and fold changes were computed as the ratio between the average normalized counts for the glucose and galactose screens. To evaluate statistical significance, Z-scores were computed for each well against the DMSO (null) distribution and averaged Z-scores across replicates. Wells with average Z-score greater than 2.5 were considered significant.
# (§9) By jointly analyzing the glucose and galactose results, a glucose-galactose cell growth ratio can be calculated (Sglu/gal) that represents the log10 fold-change in cell growth in a glucose rich media divided by the log10 fold-change in cell growth in a galactose rich media. […] Low Sglu/gal scores (e.g., ranging between approximately (−) 0.1 to (−) 0.7) may arise from inhibition of glycolysis or from inhibition of proliferation, since cells grown in glucose-rich media divide more rapidly.
# [8] = test system: MCH58 fibroblasts; assay: Glucose versus galactose cell growth screen (metabolic state-dependent lethality); conditions: for inhibitory activity against cell growth in galactose (SAR analysis): galactose versus glucose
# Procedure: as §1, §2, §3, §4, §5, §6, §7, §8, §9
# [9] = test system: C. elegans expressing 128Q huntingtin fragment in touch receptor neurons; conditions: even lower doses; cited from earlier work
# [10] = test system: isolated mitochondria; assay: Effect of phosphoethanolamine on uncoupled respiration of isolated mitochondria; assay type: biochemical; conditions: ~1 min incubation, 1 μM CCCP
# Procedure: Mitochondria were isolated from C57BL/6 mouse kidneys by differential centrifugation and resuspended in experimental buffer to a final concentration of 0.15 mg/ml. Mootha et al., Am J Physiol 272:H769 (1997). State 2 respiration was initiated with the addition of 2.5 mM glutamate and 2.5 mM malate. State 3 respiration was initiated with the addition of 50 nmoles ADP. […] O2 consumption was monitored with a Fiber Optic Oxygen sensor probe from Ocean Optics, and NADH (endogenous, 370±7 nm excitation, 440±4 nm emission) and membrane potential (1.25 μM TMRM, 546±7 nm excitation, 590±4 nm emission) were measured with a Perkin-Elmer LS50B fluorimeter. A representative trace is shown from 6 independent experiments. 1M stock of phosphoethanolamine (Sigma P0503) was made in sterile water and pH was adjusted to 7.4 by 1N potassium hydroxide solution.
# The upregulation of phosphoethanolamine was confirmed by orthogonal chromatography, as well as via ^31P-NMR. […] Previous studies have shown that phosphoethanolamine can be elevated in tumor cells, and that ethanolamine and PEA can directly silence mitochondrial OXPHOS. Zhu et al., J Lipid Res 49: 2197 (2008); and Modica-Napolitano et al., Biol Psychiatry 55:273 (2004). […]
# [11] = approximately 10 μM compound, 72 hours, log10 fold change of normalized cell number in glucose versus galactose
# Chain of human H 1 receptor (P35367 whole entry): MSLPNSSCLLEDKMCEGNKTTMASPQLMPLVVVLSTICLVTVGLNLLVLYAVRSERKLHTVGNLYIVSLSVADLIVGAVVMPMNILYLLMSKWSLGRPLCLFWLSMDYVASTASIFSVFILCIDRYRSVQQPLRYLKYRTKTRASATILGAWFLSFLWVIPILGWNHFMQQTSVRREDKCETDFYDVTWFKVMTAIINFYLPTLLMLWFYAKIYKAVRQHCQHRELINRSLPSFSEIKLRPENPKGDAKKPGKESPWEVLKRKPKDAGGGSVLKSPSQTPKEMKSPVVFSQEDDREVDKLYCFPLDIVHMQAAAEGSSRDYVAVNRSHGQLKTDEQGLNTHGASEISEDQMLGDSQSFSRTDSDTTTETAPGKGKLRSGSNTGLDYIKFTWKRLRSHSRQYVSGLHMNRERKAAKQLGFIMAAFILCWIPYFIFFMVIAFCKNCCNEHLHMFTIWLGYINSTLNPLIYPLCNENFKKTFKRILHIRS
smiles,measurement,setting,value
CN1[C@@H]2CC[C@H]1C[C@@H](OC(=O)C(CO)c1ccccc1)C2 (stereo partly drawn) [atropine],"protection of cardiomyocytes against I/R (cell viability, Trypan blue)",[1],not observed
COc1ccc(CN(CCN(C)C)c2ccccn2)cc1 [pyrilamine],"protection of cardiomyocytes against I/R (cell viability, Trypan blue)",[1],not observed
CN1[C@@H]2C[C@@H](OC(=O)[C@H](CO)c3ccccc3)C[C@H]1[C@@H]1O[C@@H]12 [scopolamine],"protection of cardiomyocytes against I/R (cell viability, Trypan blue)",[1],not observed
"Cc1cccc(CN2CCN([C@@H](c3ccccc3)c3ccc(Cl)cc3)CC2)c1 [S-meclizine, S-Meclizine]",AMPK activation (phosphorylation),[2],activate AMPK
same,affinity on the H1 receptor,[3],much weaker affinity
same,PCYT2 binding and inhibition,[4],"binD to, and inhibit"
same,protection of STHdhQ111/111 cells after serum withdrawal,[5],is protective
same,basal glucose uptake,[6],promoted increased basal glucose uptake
COc1ccc2c(c1)O[C@@H]1COc3cc(OC)c(OC)cc3[C@@H]1C2=O [Mundoserone],Sglu/gal (log10 fold change) Score,[7],0.57
CN(C)CCC(c1ccccc1)c1ccccn1 (stereo not drawn) [pheniramine],"protection of cardiomyocytes against I/R (cell viability, Trypan blue)",[1],not observed
Cc1cccc(CN2CCN([C@H](c3ccccc3)c3ccc(Cl)cc3)CC2)c1 [R-meclizine],AMPK activation (phosphorylation),[2],activate AMPK
same,affinity on the H1 receptor,[3],high affinity
COc1cc2c(cc1OC)C1C(=O)c3c(cc4c(c3O)C=CC(C)(C)O4)OC1CO2 (stereo not drawn) [Beta-toxicarol],Sglu/gal (log10 fold change) Score,[8]; [11],0.82
C=C1CC[C@@H]2[C@](C)(CO)[C@H](O)CC[C@@]2(C)[C@@H]1C/C=C1/C(=O)OC[C@H]1O [andrographolide],Sglu/gal (log10 fold change) Score,[8]; [11],−0.46
C=C(C)[C@H]1Cc2c(ccc3c2O[C@@H]2COc4cc(OC)c(OC)cc4[C@@H]2C3=O)O1 [rotenone],protection of STHdhQ111/111 cells after serum withdrawal,[5],rescue
same,toxicity in worms (Varma et al.),[9],strong developmental delay with severe toxicity
CN[C@H]1CC[C@@H](c2ccc(Cl)c(Cl)c2)c2ccccc21 [Sertraline hydrochloride],Sglu/gal (log10 fold change) Score,[8]; [11],0.15
O=c1[nH]c2ccccc2n1C1CCN(CCCC(c2ccc(F)cc2)c2ccc(F)cc2)CC1 [Pimozide],Sglu/gal (log10 fold change) Score,[8]; [11],0.18
COc1cc([C@@H]2c3cc4c(cc3[C@H](O)[C@H]3COC(=O)[C@H]23)OCO4)cc(OC)c1OC [Podophyllotoxin],Sglu/gal (log10 fold change) Score,[8]; [11],−0.27
C[n+]1c2cc(N)ccc2cc2ccc(N)cc21.[Cl-] [acriflavinium hydrochloride],Sglu/gal (log10 fold change) Score,[8]; [11],−0.29
CC(=O)O[C@H]1CC[C@@]2(C)[C@H](CC[C@@H]3[C@@H]2CC[C@]2(C)[C@@H](C4=CC(=O)OC4)[C@@H](OC(C)=O)C[C@]32O)C1 [gitoxigenin diacetate],Sglu/gal (log10 fold change) Score,[8]; [11],−0.21
COc1cc2c(cc1OC)[C@@H]1C(=O)c3ccc4c(c3O[C@@H]1CO2)CC(C(C)C)O4 (stereo partly drawn) [Beta-dihydrorotenone],Sglu/gal (log10 fold change) Score,[8]; [11],0.85
CNCCC=C1c2ccccc2CCc2ccccc21 [nortriptyline],inhibitory activity against cell growth in galactose (SAR analysis),[8],moderate inhibitory activity
O=C(N/N=C/c1ccc([N+](=O)[O-])o1)c1ccc(O)cc1 [Nifuroxazide],Sglu/gal (log10 fold change) Score,[8]; [11],0.34
CCN[C@H]1C[C@H](C)S(=O)(=O)c2sc(S(N)(=O)=O)cc21 [Dorzolamide hydrochloride],Sglu/gal (log10 fold change) Score,[8]; [11],0.17
CCN(CC)CCOc1ccc(C(=C(Cl)c2ccccc2)c2ccccc2)cc1 [Clomiphene citrate],Sglu/gal (log10 fold change) Score,[8]; [11],0.21
C[C@H]1CC[C@]2(NC1)O[C@H]1C[C@H]3[C@@H]4CC[C@H]5C[C@@H](O[C@@H]6O[C@H](CO)[C@H](O[C@@H]7O[C@H](CO)[C@@H](O)[C@H](O[C@@H]8OC[C@@H](O)[C@H](O)[C@H]8O)[C@H]7O[C@@H]7O[C@H](CO)[C@@H](O)[C@H](O)[C@H]7O)[C@H](O)[C@H]6O)CC[C@]5(C)[C@H]4CC[C@]3(C)[C@H]1[C@@H]2C [tomatine],Sglu/gal (log10 fold change) Score,[8]; [11],−0.64
C[C@@]12C(=O)OC(=O)[C@]1(C)[C@H]1CC[C@@H]2O1 [cantharidin],Sglu/gal (log10 fold change) Score,[8]; [11],−0.33
"NCCOP(=O)(O)O [PEA, phosphoethanolamine]",uncoupler-stimulated respiration in isolated mitochondria,[10],blocks uncoupler-stimulated respiration
CN1CCN(C(c2ccccc2)c2ccc(Cl)cc2)CC1 (stereo not drawn) [chlorcyclizine],inhibitory activity against cell growth in galactose (SAR analysis),[8],more potent than that of homopiperazine analogue
C[CH2][Hg][S]c1ccccc1C(=O)[O-].[Na+] [thimerosal],Sglu/gal (log10 fold change) Score,[8],−0.22
COc1cc(C(=O)O)c2c(c1C)OC(=O)c1c(C)cc(O)c(C=O)c1O2 [Psoromic acid],Sglu/gal (log10 fold change) Score,[8]; [11],0.35
COc1cc2c(cc1OC)[C@@H]1C(=O)c3c(O)cc4c(c3O[C@@H]1CO2)C=CC(C)(C)O4 [Alpha-toxicarol],Sglu/gal (log10 fold change) Score,[8]; [11],0.91
